Here are results for 13 compounds from patent publication US8426587B2, “Haloallylamine inhibitors of SSAO/VAP-1 and uses therefor” (Pharmaxis Ltd., priority 2007, dated 2013).

One may read the IC50 as the concentration that inhibits the measured activity by half. By ED50 is commonly meant the midpoint of the dose-response relation.

Each structure is given as a SMILES string. Where a name gives a salt, the structure may show the parent alone. Read-outs that look alike come from different tables or passages of the source.

In one assay the target is T1, Human MAO-B (Homo sapiens, UniProt P27338).
T1 sequence (P27338 1-520): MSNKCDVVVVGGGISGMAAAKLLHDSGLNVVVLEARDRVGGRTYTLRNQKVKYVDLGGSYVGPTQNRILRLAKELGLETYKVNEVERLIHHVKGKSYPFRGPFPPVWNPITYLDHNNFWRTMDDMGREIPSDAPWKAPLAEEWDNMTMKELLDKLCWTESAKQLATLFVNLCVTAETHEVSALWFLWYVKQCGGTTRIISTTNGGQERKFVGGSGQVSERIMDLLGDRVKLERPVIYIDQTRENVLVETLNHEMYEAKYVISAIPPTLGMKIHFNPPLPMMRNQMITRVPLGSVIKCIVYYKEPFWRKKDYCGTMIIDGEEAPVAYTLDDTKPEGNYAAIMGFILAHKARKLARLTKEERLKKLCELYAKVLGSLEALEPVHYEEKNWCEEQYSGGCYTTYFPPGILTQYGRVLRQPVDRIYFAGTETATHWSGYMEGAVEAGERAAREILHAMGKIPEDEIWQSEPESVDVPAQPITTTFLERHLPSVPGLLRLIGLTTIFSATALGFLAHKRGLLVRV
Briefly: Inhibition of recombinant MAO-B (Amplex Red). It is filed as biochemical. To be noted: 30 min at 37° C. preincubation, 50 μM benzylamine. The protocol: Recombinant MAO-B was incubated in 0.1 M sodium phosphate buffer pH 7.4 with varying concentration of test compounds for 30 min at 37° C. The homogenate/protein was then incubated at 37° C. with […] Amplex® Red, 0.75 U/ml HRP and 40 μM benzylamine (mouse SSAO), 300 μM benzylamine (human SSAO), 100 μM tyramine (MAO-A) or 50 μM benzylamine (MAO-B) and the formation of resorufin was measured (excitation range 530-560 nm and emission at 590 nm) every 5 min in either a Tecan Infinite 200 or a BMG Fluorostar Optima platereader. IC50 were estimated using Graphpad Prism software.

Another assay has as its target T2, Mouse SSAO/VAP-1 (Mus musculus, UniProt O70423).
T2 construct: Adipocytes were used as an SSAO source either as adherent cells or as a homogenate; endogenous in cells; host or cells: 3T3-L1 murine fibroblasts (ATCC) differentiated into adipocytes
T2 sequence (O70423 1-765): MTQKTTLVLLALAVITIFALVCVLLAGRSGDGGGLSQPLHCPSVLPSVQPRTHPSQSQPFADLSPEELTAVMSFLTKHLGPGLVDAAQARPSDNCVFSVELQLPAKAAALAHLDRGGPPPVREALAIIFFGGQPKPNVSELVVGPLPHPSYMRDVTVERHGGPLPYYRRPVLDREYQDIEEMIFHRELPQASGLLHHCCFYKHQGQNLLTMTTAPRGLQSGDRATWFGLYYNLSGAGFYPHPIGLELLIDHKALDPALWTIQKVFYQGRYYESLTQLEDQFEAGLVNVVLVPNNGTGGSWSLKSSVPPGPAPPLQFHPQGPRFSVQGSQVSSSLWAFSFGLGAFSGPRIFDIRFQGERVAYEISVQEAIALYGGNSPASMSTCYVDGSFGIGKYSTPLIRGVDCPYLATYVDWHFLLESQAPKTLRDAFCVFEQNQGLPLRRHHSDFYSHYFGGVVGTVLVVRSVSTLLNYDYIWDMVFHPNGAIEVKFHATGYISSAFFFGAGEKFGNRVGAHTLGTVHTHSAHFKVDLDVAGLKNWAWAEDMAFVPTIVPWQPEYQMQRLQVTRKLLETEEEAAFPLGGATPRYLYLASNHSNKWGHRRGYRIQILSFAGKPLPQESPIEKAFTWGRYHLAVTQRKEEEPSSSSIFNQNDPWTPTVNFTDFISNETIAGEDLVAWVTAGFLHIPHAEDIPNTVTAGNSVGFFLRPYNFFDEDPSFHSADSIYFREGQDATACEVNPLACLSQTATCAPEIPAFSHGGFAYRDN
Briefly: Inhibition of amine oxidase activity of mouse SSAO/VAP-1 (3T3-L1 adipocytes, Amplex Red). It is filed as biochemical. To be noted: 3T3-L1 adipocyte SSAO, 30 min at 37° C. preincubation, 40 μM benzylamine. An excerpt: 3T3-L1 Murine fibroblasts were purchased from the American Type Culture Collection (ATCC, Rockville, Md.). Dulbecco's Modified Eagle Medium (DMEM) and fetal calf serum (FCS), antibiotics and Amplex® Red were obtained from Invitrogen (Carlsbad, Calif.). Tissue culture plastics and black clear-bottom 96 well plates were from BD Falcon (Bedford, Mass.). Bicinchoninic acid (BCA) reagent was from Pierce (Rockford, Ill.). All other materials were obtained from Sigma (St. Louis, Mo.).
3T3-L1 Fibroblasts were cultured in DMEM supplemented with 10% heat-inactivated FCS, 2 mM L-glutamine, 100 U/L penicillin and 100 μg/L streptomycin at 37° C. in 5% CO2. For differentiation into adipocytes, fibroblasts were cultured in DMEM with FCS for 1 or 2 days postconfluence, after which the cells were cultured for 3 days in DMEM containing 10% FCS, 350 nM insulin, 0.5 mM 3-isobutyl-1-methylxanthine, 250 nM dexamethasone, and 400 nM biotin and for 3 days in DMEM containing 10% FCS and 350 nM insulin. After differentiation, adipocytes were maintained in DMEM supplemented with 10% FCS. Adipocytes were used for experiments 8 to 11 days after the onset of differentiation, and the medium was renewed 2 or 3 days prior to each experiment. For culturing in black clear-bottom 96-well plates, cells were seeded at a 1:1 cell surface ratio, and differentiation was initiated 4 days postseeding. Cells were used between days 6-12 post-differentiation and between passages 7 and 20. Adipocytes were used as an SSAO source either as adherent cells or as a homogenate.
To prepare homogenate, 10 cm dishes of adipocytes were washed with HES buffer (20 mM HEPES, 1 mM EDTA, 250 mM sucrose, pH 7.4) and scraped in HES buffer containing 10 μg/mL leupeptin, 10 μM pepstatin and 1 mM PMSF. Cells were lysed by passage through a 23 G needle followed by passage through a 27 G needle. The lysate was spun at 500 g for 5 min and fat was removed. Protein concentration of the supernatant was measured using a BCA assay according to the manufacturer's instructions. The homogenate was stored at −80° C. until needed.
(§1) To measure the SSAO activity, adipocyte homogenate (0.5 mg/mL) or adipocytes (adhering cells) containing 0.5 mM pargyline, or purified human SSAO was incubated in 0.1 M sodium phosphate buffer pH 7.4 with varying concentrations of test compounds for 30 min at 37° C. The homogenate was then incubated at 37° C. with 60 μM Amplex® Red, 0.75 U/mL HRP and 40 μM benzylamine (mouse SSAO) or 300 μM benzylamine (human SSAO) and the formation of resorufin was measured (excitation range 530-560 nm and emission at 590 nm) every 10 min in either a Tecan Infinite 200 or a BMG plate reader. The IC50 values were estimated using Graphpad Prism software. The IC50 is an estimation of the concentration of the test compound to inhibit the amine oxidase activity of SSAO/VAP-1 by 50%. The IC50 values of certain invention compounds are included in Table 1.

The next assay deals with T3, Human SSAO/VAP-1 (Homo sapiens, UniProt Q16853).
T3 sequence (Q16853 1-763): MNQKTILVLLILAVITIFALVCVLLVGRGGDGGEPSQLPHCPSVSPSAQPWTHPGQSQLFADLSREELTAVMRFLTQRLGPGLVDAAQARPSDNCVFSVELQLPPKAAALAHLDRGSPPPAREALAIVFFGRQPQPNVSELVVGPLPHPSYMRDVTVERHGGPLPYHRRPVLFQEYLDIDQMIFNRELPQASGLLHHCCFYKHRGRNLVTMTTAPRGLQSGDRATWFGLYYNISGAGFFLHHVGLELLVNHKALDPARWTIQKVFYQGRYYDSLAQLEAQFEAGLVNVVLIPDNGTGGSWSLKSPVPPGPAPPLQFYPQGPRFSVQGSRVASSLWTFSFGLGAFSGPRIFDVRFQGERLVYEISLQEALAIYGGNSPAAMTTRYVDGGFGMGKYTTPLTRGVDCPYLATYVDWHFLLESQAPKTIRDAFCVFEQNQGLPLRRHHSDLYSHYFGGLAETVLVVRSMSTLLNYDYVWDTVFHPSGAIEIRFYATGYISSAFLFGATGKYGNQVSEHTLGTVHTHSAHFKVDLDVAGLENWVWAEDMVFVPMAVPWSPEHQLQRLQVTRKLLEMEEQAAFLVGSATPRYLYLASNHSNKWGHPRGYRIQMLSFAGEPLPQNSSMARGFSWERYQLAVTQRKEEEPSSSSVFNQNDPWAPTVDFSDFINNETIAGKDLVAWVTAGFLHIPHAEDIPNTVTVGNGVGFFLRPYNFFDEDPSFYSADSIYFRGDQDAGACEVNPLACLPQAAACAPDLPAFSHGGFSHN
Briefly: Inhibition of amine oxidase activity of purified human SSAO/VAP-1 (Amplex Red). The conditions noted are these: purified human SSAO, 30 min at 37° C. preincubation, 300 μM benzylamine. The class given is biochemical. The protocol: as §1

The next assay has as its target T4, SSAO/VAP-1 (Mus musculus, UniProt O70423).
T4 construct: the genital fat was excised and frozen; The tissue was homogenized; from tissue; host or cells: genital fat of BALB/C mice
T4 sequence (O70423 1-765): T2 sequence (O70423 1-765)
Briefly: In vivo inhibition of SSAO/VAP-1 activity in mouse genital fat. To be noted: ip. Details: species or system BALB/C mice. The protocol:
In vivo inhibition was assessed in mouse genital fat, a tissue with high SSAO/VAP-1 expression. 10 BALB/C mice (5 males and 5 females) were administered 0 mg/kg, 10 mg/kg, 30 mg/kg or 100 mg/kg SSAO/VAP-1 inhibitor by intraperitoneal injection. Two hours after administration the mice were sacrificed and the genital fat was excised and frozen. The tissue was homogenized in 0.01 M sodium phosphate buffer pH 7.4 (10 mL/g) and used to measure SSAO activity using Amplex® Red. ED50 was estimated Using Graphpad Prism software.

The mark [1] stands for this setting: female BALB/C mice, intraperitoneal, genital fat SSAO activity two hours after administration, read-out: Female Mice ED50 [ip].
Where [2] appears, read: male BALB/C mice, intraperitoneal, genital fat SSAO activity two hours after administration, read-out: Male Mice ED50 [ip].
Where [3] appears, read: read-out: Female Mice ED50 [ip].

Consider `NC/C=C(/F)COc1cccc(C(F)(F)F)c1` [(E)-3-Fluoro-4-(3-(trifluoromethyl)phenoxy)but-2-en-1-amine hydrochloride], for which the IC50 on Human MAO-B is under 1 µM; against Mouse SSAO/VAP-1, under 100 µM; at Human SSAO/VAP-1, under 1 µM.
For the compound `CC(C)S(=O)(=O)c1ccc(OC/C(F)=C\CN)cc1.Cl` [(E)-3-Fluoro-4-(4-(isopropylsulfonyl)phenoxy)but-2-en-1-amine hydrochloride], the ED50 at SSAO/VAP-1 (setting [1]) and on SSAO/VAP-1 (setting [2]) was under 150 mg/kg in each case.
As to `NC/C=C(/F)COc1ccc(S(=O)(=O)N2CCOCC2)cc1` [(E)-3-Fluoro-4-(4-(morpholinosulfonyl)phenoxy)but-2-en-1-amine hydrochloride], the 50% inhibitory concentration (IC50) on Human MAO-B is under 10 µM; against Mouse SSAO/VAP-1, under 10 µM; on Human SSAO/VAP-1, under 1 µM.
With `NC/C=C(/F)COc1ccc([N+](=O)[O-])cc1` [(E)-3-Fluoro-4-(4-nitrophenoxy)but-2-en-1-amine hydrochloride], the IC50 on Human MAO-B is under 1 µM; against Mouse SSAO/VAP-1, under 10 µM; at Human SSAO/VAP-1 it was under 1 µM.
Regarding `NC/C=C(/F)COc1ccccc1` [(E)-3-fluoro-4-phenoxybut-2-en-1-amine hydrochloride], the IC50 at Human MAO-B is under 1 µM; on Mouse SSAO/VAP-1, under 10 µM; at Human SSAO/VAP-1 it was under 1 µM.
With `NC/C=C(/F)COc1ccc(Cl)cc1Cl` [(E)-4-(2,4-Dichlorophenoxy)-3-fluorobut-2-en-1-amine hydrochloride], the IC50 at Human MAO-B is under 1 µM; against Mouse SSAO/VAP-1 it was under 10 µM; against Human SSAO/VAP-1 it was under 1 µM.
For the compound `Cl.NC/C=C(/F)COc1ccc(S(=O)(=O)Cc2ccccc2)cc1` [(E)-4-(4-(Benzylsulfonyl)phenoxy)-3-fluorobut-2-en-1-amine hydrochloride], the ED50 was under 300 mg/kg on SSAO/VAP-1 (setting [1]) and under 50 mg/kg on SSAO/VAP-1 (setting [2]).
For `CC(C)N(C(=O)c1ccc(OC/C(F)=C\CN)cc1)C(C)C` [(E)-4-(4-Amino-2-fluorobut-2-enyloxy)-N,N-diisopropylbenzamide hydrochloride], the IC50 on Human MAO-B was under 100 µM; against Mouse SSAO/VAP-1 it was under 100 µM; at Human SSAO/VAP-1 it was under 1 µM.
As for `Cl.NC/C=C(/F)COc1ccc(C(=O)NC2CCCC2)cc1` [(E)-4-(4-Amino-2-fluorobut-2-enyloxy)-N-cyclopentylbenzamide hydrochloride], the ED50 on SSAO/VAP-1 (setting [1]) and at SSAO/VAP-1 (setting [2]) was under 50 mg/kg in each case.
For the compound `NC/C=C(\Cl)Cc1cc(F)cc(F)c1` [(Z)-3-Chloro-4-(3,5-difluorophenyl)but-2-en-1-amine hydrochloride, reference compound], the concentration for half-maximal inhibition (IC50) on Mouse SSAO/VAP-1 is under 1 µM; against Human SSAO/VAP-1 it was under 10 µM.
The matching figures for `NC/C=C(\Cl)CCc1ccccc1` [(Z)-3-Chloro-5-phenylpent-2-en-1-amine hydrochloride, reference compound]: under 10 µM and under 10 µM.
`C[C@@H](NC(=O)c1ccc(OC/C(F)=C\CN)cc1)c1ccccc1.Cl` [R-(E)-4-(4-Amino-2-fluorobut-2-enyloxy)-N-(1-phenylethyl)benzamide hydrochloride]: the values for the ED50 at SSAO/VAP-1 (setting [3]) and at SSAO/VAP-1 (read-out: Male Mice ED50 [ip]) were under 150 mg/kg and under 50 mg/kg, respectively.
For `C[C@H](NC(=O)c1ccc(OC/C(F)=C\CN)cc1)c1ccccc1.Cl` [S-(E)-4-(4-Amino-2-fluorobut-2-enyloxy)-N-(1-phenylethyl)benzamide hydrochloride], the ED50 at SSAO/VAP-1 (setting [3]) and on SSAO/VAP-1 (read-out: Male Mice ED50 [ip]) was under 50 mg/kg in each case.
